Experimental data as given in patent publication US20250154152A1, “INHIBITORS OF NAEGLERIA FOWLERI” (Wisconsin Alumni Research Foundation, priority 2023, published 2025).
Where two headings read alike, the source gives them in different places.

Tested on: N. fowleri strain Nf69 (ATCC 30215) trophozoites
Test: Determination of EC50 values against Naegleria fowleri (growth inhibition, CellTiter Glo, 48 h)
Type: cell-based
Conditions: read-out: EC50 uM against N. fowleri
Summary of the method: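 Axenic Nf69 trophozoites in Nelson's complete medium with 10% FBS exposed to compound, initially 20–0.375 μM, for 48 h at 37 °C, 5% CO2. Viability read by CellTiter-Glo luminescence; % growth inhibition versus controls, triplicate averages fitted for EC50, with lower ranges used for very potent compounds.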

[1] = ATCC30215, N. fowleri Nf69 trophozoites, 48 h culture, 37° C., CellTiter Glo luminescence

EC50 [1]	Structure (SMILES)	EC50 (ATCC30215, 48 h)
0.1 to 1 µM	COc1cc2nc3n(c(=O)c2cc1Cl)CC[C@@H]1[C@@H]3CCCN1CCN1CCOCC1 (racemic) [trans-7mm, (±)-(4aR,13bS)-10-chloro-11-methoxy-4-(2-morpholinoethyl)-1,2,3,4,4a,5,6,13b-octahydro-8H-[1,6]naphthyridino[5,6-b]quinazolin-8-one]	
0.0001 to 0.1 µM	COc1cc(CN2CCC[C@@H]3c4nc5cc(Cl)c(Cl)cc5c(=O)n4CC[C@H]32)cc(OC)c1 (racemic) [trans-7n, (±)-(4aR,13bS)-10,11-dichloro-4-(3,5-dimethoxybenzyl)-1,2,3,4,4a,5,6,13b-octahydro-8H-[1,6]naphthyridino[5,6-b]quinazolin-8-one]	
0.1 to 1 µM	COc1cc2nc3n(c(=O)c2cc1Cl)CC[C@@H]1[C@@H]3CCCN1CCN1CCCC1 (racemic) [trans-7nn, (±)-(4aR,13bS)-10-chloro-11-methoxy-4-(2-(pyrrolidin-1-yl)ethyl)-1,2,3,4,4a,5,6,13b-octahydro-8H-[1,6]naphthyridino[5,6-b]quinazolin-8-one]	
1 to 10 µM	O=c1c2cc(Cl)c(Cl)cc2nc2n1CC[C@@H]1[C@@H]2CCCN1Cc1ccccn1 (racemic) [trans-7o, (±)-(4aR,13bS)-10,11-dichloro-4-(pyridin-2-ylmethyl)-1,2,3,4,4a,5,6,13b-octahydro-8H-[1,6]naphthyridino[5,6-b]quinazolin-8-one]	
0.1 to 1 µM	CN(C)CCN1CCC[C@@H]2c3nc4cc(Cl)c(Cl)cc4c(=O)n3CC[C@H]21 (racemic) [trans-7oo, (±)-(4aR,13bS)-10,11-dichloro-4-(2-(dimethylamino)ethyl)-1,2,3,4,4a,5,6,13b-octahydro-8H-[1,6]naphthyridino[5,6-b]quinazolin-8-one]	
0.1 to 1 µM	Cc1cccc(CN2CCC[C@@H]3c4nc5cc(Cl)c(Cl)cc5c(=O)n4CC[C@H]32)n1 (racemic) [trans-7p, (±)-(4aR,13bS)-10,11-dichloro-4-((6-methylpyridin-2-yl)methyl)-1,2,3,4,4a,5,6,13b-octahydro-8H-[1,6]naphthyridino[5,6-b]quinazolin-8-one]	
0.0001 to 0.1 µM	O=c1c2cc(Cl)c(Cl)cc2nc2n1CC[C@@H]1[C@@H]2CCCN1CC1CC1 (racemic) [trans-7q, (±)-(4aR,13bS)-10,11-dichloro-4-(cyclopropylmethyl)-1,2,3,4,4a,5,6,13b-octahydro-8H-[1,6]naphthyridino[5,6-b]quinazolin-8-one]	
> 10 µM	N#Cc1ccc(CN2CCC[C@@H]3c4nc5cc(Cl)c(Cl)cc5c(=O)n4CC[C@H]32)cc1 (racemic) [trans-7r, (±)-(4-(((4aR,13bS)-10,11-dichloro-8-oxo-2,3,5,6,8,13b-hexahydro-1H-[1,6]naphthyridino[5,6-b]quinazolin-4(4aH)-yl)methyl)benzonitrile]	
> 10 µM	CC(C)(C)c1ccc(CN2CCC[C@@H]3c4nc5cc(Cl)c(Cl)cc5c(=O)n4CC[C@H]32)cc1 (racemic) [trans-7s, (±)-(4aR,13bS)-4-(4-(tert-butyl)benzyl)-10,11-dichloro-1,2,3,4,4a,5,6,13b-octahydro-8H-[1,6]naphthyridino[5,6-b]quinazolin-8-one]	
0.1 to 1 µM	O=c1c2cc(Cl)c(Cl)cc2nc2n1CC[C@@H]1[C@@H]2CCCN1Cc1ccccc1 (racemic) [trans-7w, (±)-(4aR,13bS)-4-benzyl-10,11-dichloro-1,2,3,4,4a,5,6,13b-octahydro-8H-[1,6]naphthyridino[5,6-b]quinazolin-8-one]	
0.0001 to 0.1 µM	O=c1c2cc(Cl)c(Cl)cc2nc2n1CC[C@@H]1[C@@H]2CCCN1Cc1cnccn1 (racemic) [trans-7x, (±)-(4aR,13bS)-10,11-dichloro-4-(pyrazin-2-ylmethyl)-1,2,3,4,4a,5,6,13b-octahydro-8H-[1,6]naphthyridino[5,6-b]quinazolin-8-one]	
0.0001 to 0.1 µM	O=c1c2cc(Cl)c(Cl)cc2nc2n1CC[C@@H]1[C@@H]2CCCN1CCN1CCOCC1 (racemic) [trans-7y, (±)-(4aR,13bS)-10,11-dichloro-4-(2-morpholinoethyl)-1,2,3,4,4a,5,6,13b-octahydro-8H-[1,6]naphthyridino[5,6-b]quinazolin-8-one]	
	CC(C)OCCN1CCC[C@@H]2c3nc4cc(Cl)c(Cl)cc4c(=O)n3CC[C@H]21 (racemic) [trans-7z, (±)-(4aR,13bS)-10,11-dichloro-4-(2-isopropoxyethyl)-1,2,3,4,4a,5,6,13b-octahydro-8H-[1,6]naphthyridino[5,6-b]quinazolin-8-one]	0.0001 to 0.1 µM
> 10 µM	Cc1ccc(-c2ccc3nc4n(c(=O)c3c2)CC[C@@H]2[C@@H]4CCCN2C)cn1 (racemic) [trans-9a, (±)-(4aR,13bS)-4-methyl-10-(6-methylpyridin-3-yl)-1,2,3,4,4a,5,6,13b-octahydro-8H-[1,6]naphthyridino[5,6-b]quinazolin-8-one]	
1 to 10 µM	CN1CCC[C@@H]2c3nc4cc(-c5ccccc5)c(Cl)cc4c(=O)n3CC[C@H]21 (racemic) [trans-9b, (±)-(4aR,13bS)-10-chloro-4-methyl-11-phenyl-1,2,3,4,4a,5,6,13b-octahydro-8H-[1,6]naphthyridino[5,6-b]quinazolin-8-one]	
0.1 to 1 µM	COc1cc2nc3n(c(=O)c2cc1Cl)CC[C@@H]1[C@@H]3CCCN1CC(C)C (single isomer, unassigned) [trans-10g-ent-1]	
0.0001 to 0.1 µM	COc1cc2nc3n(c(=O)c2cc1Cl)CC[C@H]1[C@H]3CCCN1CC(C)C (single isomer, unassigned) [trans-10h-ent-2]	
0.1 to 1 µM	COc1cc2nc3n(c(=O)c2cc1Cl)CC[C@@H]1[C@@H]3CCCN1CC1COC1 (single isomer, unassigned) [trans-10i-ent-1]	
0.0001 to 0.1 µM	COc1cc2nc3n(c(=O)c2cc1Cl)CC[C@H]1[C@H]3CCCN1CC1COC1 (single isomer, unassigned) [trans-10j-ent-2]	
> 10 µM	Cn1c(C2CN(CC3COC3)C2)nc2cc(Cl)c(Cl)cc2c1=O [Compound 14i, 6,7-dichloro-3-methyl-2-(1-(oxetan-3-ylmethyl)azetidin-3-yl)quinazolin-4(3H)-one]	
1 to 10 µM	CC(C)OCCN1CCC[C@@H](c2nc3cc(Cl)c(Cl)cc3c(=O)n2C)C1 [Compound R-14aa, (R)-6,7-dichloro-2-(1-(2-isopropoxyethyl)piperidin-3-yl)-3-methylquinazolin-4(3H)-one]	
> 10 µM	CC(C)N1CCC[C@@H](c2nc3cc(Cl)c(Cl)cc3c(=O)n2C)C1 [Compound R-14b, (R)-6,7-dichloro-2-(1-isopropylpiperidin-3-yl)-3-methylquinazolin-4(3H)-one]	
1 to 10 µM	Cn1c([C@@H]2CCCN(CCN3CCOCC3)C2)nc2cc(Cl)c(Cl)cc2c1=O [Compound R-14bb, (R)-6,7-dichloro-3-methyl-2-(1-(2-morpholinoethyl)piperidin-3-yl)quinazolin-4(3H)-one]	
> 10 µM	Cn1c([C@@H]2CCCN(CC3CCOCC3)C2)nc2cc(Cl)c(Cl)cc2c1=O [Compound R-14d, (R)-6,7-dichloro-3-methyl-2-(1-((tetrahydro-2H-pyran-4-yl)methyl)piperidin-3-yl)quinazolin-4(3H)-one]	

Structure (SMILES)	EC50 [1]	EC50 (ATCC30215, 48 h)
COc1ccc2c(=O)n3c(nc2c1)[C@H]1CCCN(C)[C@@H]1CC3 (racemic) [trans-50, (±)-(4aR,13bS)-11-methoxy-4-methyl-1,2,3,4,4a,5,6,13b-octahydro-8H-[1,6]naphthyridino[5,6-b]quinazolin-8-one]	1 to 10 µM	
